Test results taken from PubChem BioAssay (NCI).
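All cell lines were grown in 96-well plates and treated with compound for 48 hours. TGI is the concentration that stops growth completely.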

Columns and labels:
Experiment in all cases: NCI-60 cell line screen, 48 h
SK-MEL-5 melanoma = test system: SK-MEL-5 melanoma
CCRF-CEM leukemia = test system: CCRF-CEM leukemia
UACC-62 melanoma = test system: UACC-62 melanoma
OVCAR-8 ovarian = test system: OVCAR-8 ovarian
HCT-15 colon = test system: HCT-15 colon
RPMI-8226 leukemia = test system: RPMI-8226 leukemia
SR leukemia = test system: SR leukemia
HCT-116 colon = test system: HCT-116 colon
UO-31 renal = test system: UO-31 renal
NCI-H226 lung = test system: NCI-H226 lung
M14 melanoma = test system: M14 melanoma
SF-268 CNS = test system: SF-268 CNS
DMS 273 small cell lung = test system: DMS 273 small cell lung
HOP-18 NSCLC = test system: HOP-18 NSCLC
DMS 114 small cell lung = test system: DMS 114 small cell lung
RXF-631 renal = test system: RXF-631 renal
RXF 393 renal = test system: RXF 393 renal
HL-60(TB) leukemia = test system: HL-60(TB) leukemia
HOP-62 NSCLC = test system: HOP-62 NSCLC
A549 NSCLC = test system: A549 NSCLC
NCI-H23 lung = test system: NCI-H23 lung
SNB-75 CNS = test system: SNB-75 CNS
LXFL 529 NSCLC = test system: LXFL 529 NSCLC
TK-10 renal = test system: TK-10 renal
HCC-2998 colon = test system: HCC-2998 colon
DLD-1 colon = test system: DLD-1 colon
786-0 renal = test system: 786-0 renal
OVCAR-4 ovarian = test system: OVCAR-4 ovarian
NCI-H460 lung = test system: NCI-H460 lung
SK-MEL-2 melanoma = test system: SK-MEL-2 melanoma
OVCAR-3 ovarian = test system: OVCAR-3 ovarian
SW-620 colon = test system: SW-620 colon
M19-MEL melanoma = test system: M19-MEL melanoma
SK-MEL-28 melanoma = test system: SK-MEL-28 melanoma
A498 renal = test system: A498 renal
IGROV1 ovarian = test system: IGROV1 ovarian
SNB-78 CNS = test system: SNB-78 CNS
SNB-19 CNS = test system: SNB-19 CNS
K-562 leukemia = test system: K-562 leukemia
SN12C renal = test system: SN12C renal
CAKI-1 renal = test system: CAKI-1 renal
KM12 colon = test system: KM12 colon
SF-295 CNS = test system: SF-295 CNS
KM20L2 colon = test system: KM20L2 colon
UACC-257 melanoma = test system: UACC-257 melanoma
HT29 colon = test system: HT29 colon
ACHN renal = test system: ACHN renal
SK-OV-3 ovarian = test system: SK-OV-3 ovarian
SF-539 CNS = test system: SF-539 CNS
MOLT-4 leukemia = test system: MOLT-4 leukemia
NCI-H522 lung = test system: NCI-H522 lung
HOP-92 NSCLC = test system: HOP-92 NSCLC
EKVX NSCLC = test system: EKVX NSCLC
COLO 205 colon = test system: COLO 205 colon
LOX IMVI melanoma = test system: LOX IMVI melanoma
MALME-3M melanoma = test system: MALME-3M melanoma
U251 CNS = test system: U251 CNS
OVCAR-5 ovarian = test system: OVCAR-5 ovarian

Cc1ccc(C(=O)/C=C/c2cccc([N+](=O)[O-])c2)cc1
TGI (SK-MEL-5 melanoma): > 100 µM | TGI (CCRF-CEM leukemia): > 89.9 µM | TGI (UACC-62 melanoma): > 100 µM | TGI (OVCAR-8 ovarian): > 100 µM | TGI (HCT-15 colon): > 64 µM | TGI (RPMI-8226 leukemia): > 78.8 µM | TGI (SR leukemia): 51.1 µM | TGI (HCT-116 colon): 31.8 µM | TGI (UO-31 renal): > 100 µM | TGI (NCI-H226 lung): > 100 µM | TGI (M14 melanoma): > 100 µM | TGI (SF-268 CNS): > 100 µM | TGI (DMS 273 small cell lung): > 100 µM | TGI (HOP-18 NSCLC): > 100 µM | TGI (DMS 114 small cell lung): > 80.9 µM | TGI (RXF-631 renal): > 100 µM | TGI (RXF 393 renal): > 74.8 µM | TGI (HL-60(TB) leukemia): > 85.8 µM | TGI (HOP-62 NSCLC): > 100 µM | TGI (A549 NSCLC): > 100 µM | TGI (NCI-H23 lung): > 100 µM | TGI (SNB-75 CNS): > 92.9 µM | TGI (LXFL 529 NSCLC): > 100 µM | TGI (TK-10 renal): > 100 µM | TGI (HCC-2998 colon): > 92 µM | TGI (DLD-1 colon): > 85.8 µM | TGI (786-0 renal): > 62.9 µM | TGI (OVCAR-4 ovarian): > 100 µM | TGI (NCI-H460 lung): > 100 µM | TGI (SK-MEL-2 melanoma): > 100 µM | TGI (OVCAR-3 ovarian): > 100 µM | TGI (SW-620 colon): 43.7 µM | TGI (M19-MEL melanoma): > 62.3 µM | TGI (SK-MEL-28 melanoma): > 100 µM | TGI (A498 renal): > 100 µM | TGI (IGROV1 ovarian): > 100 µM | TGI (SNB-78 CNS): > 100 µM | TGI (SNB-19 CNS): > 100 µM | TGI (K-562 leukemia): 66.5 µM | TGI (SN12C renal): > 100 µM | TGI (CAKI-1 renal): > 100 µM | TGI (KM12 colon): > 62.1 µM | TGI (SF-295 CNS): > 100 µM | TGI (KM20L2 colon): > 100 µM | TGI (UACC-257 melanoma): > 100 µM | TGI (HT29 colon): > 66.1 µM | TGI (ACHN renal): > 100 µM | TGI (SK-OV-3 ovarian): > 100 µM | TGI (SF-539 CNS): > 100 µM | TGI (MOLT-4 leukemia): 7.39 µM | TGI (NCI-H522 lung): > 100 µM | TGI (HOP-92 NSCLC): > 100 µM | TGI (EKVX NSCLC): > 100 µM | TGI (COLO 205 colon): > 55.9 µM | TGI (LOX IMVI melanoma): > 100 µM | TGI (MALME-3M melanoma): > 100 µM | TGI (U251 CNS): > 55.5 µM

C=C1C(OC(=O)/C=C/c2ccccc2)CC(OC(C)=O)C2(C)C1CC1CC(OC(C)=O)C(C)=C(C(OC(C)=O)C2OC(C)=O)C1(C)C (centres undefined)
TGI (SK-MEL-5 melanoma): > 100 µM | TGI (CCRF-CEM leukemia): > 100 µM | TGI (UACC-62 melanoma): > 100 µM | TGI (OVCAR-8 ovarian): > 100 µM | TGI (HCT-15 colon): > 100 µM | TGI (RPMI-8226 leukemia): > 100 µM | TGI (SR leukemia): > 100 µM | TGI (HCT-116 colon): > 100 µM | TGI (UO-31 renal): > 100 µM | TGI (NCI-H226 lung): > 100 µM | TGI (M14 melanoma): > 100 µM | TGI (SF-268 CNS): > 100 µM | TGI (DMS 273 small cell lung): > 100 µM | TGI (HOP-18 NSCLC): > 100 µM | TGI (DMS 114 small cell lung): > 100 µM | TGI (RXF-631 renal): > 100 µM | TGI (HOP-62 NSCLC): > 100 µM | TGI (A549 NSCLC): > 100 µM | TGI (SNB-75 CNS): > 100 µM | TGI (LXFL 529 NSCLC): > 100 µM | TGI (TK-10 renal): > 100 µM | TGI (HCC-2998 colon): > 100 µM | TGI (786-0 renal): > 100 µM | TGI (NCI-H460 lung): > 100 µM | TGI (SW-620 colon): > 100 µM | TGI (M19-MEL melanoma): > 100 µM | TGI (A498 renal): > 100 µM | TGI (IGROV1 ovarian): > 100 µM | TGI (SNB-78 CNS): > 100 µM | TGI (SNB-19 CNS): > 100 µM | TGI (K-562 leukemia): > 100 µM | TGI (SN12C renal): > 100 µM | TGI (CAKI-1 renal): > 100 µM | TGI (KM12 colon): > 100 µM | TGI (SF-295 CNS): > 100 µM | TGI (KM20L2 colon): > 100 µM | TGI (OVCAR-5 ovarian): > 100 µM | TGI (HT29 colon): > 100 µM | TGI (SK-OV-3 ovarian): > 100 µM | TGI (SF-539 CNS): > 100 µM | TGI (MOLT-4 leukemia): > 100 µM | TGI (NCI-H522 lung): > 100 µM | TGI (HOP-92 NSCLC): > 100 µM | TGI (COLO 205 colon): > 100 µM | TGI (LOX IMVI melanoma): > 100 µM | TGI (MALME-3M melanoma): > 100 µM | TGI (U251 CNS): > 100 µM
